Reference: ChEMBL document CHEMBL1201861, “Genomics of Drug Sensitity in Cancer screening data, Wellcome Trust Sanger Institute”

How the values were obtained:
Experiment in all cases: cells
Settings in all cases: Homo sapiens
[1] = tested on: NCI-H209; assay type: functional, cell-based;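 also: growth inhibition of human NCI-H209 cells, measured by a cell viability assay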
Description: SANGER: Inhibition of human NCI-H209 cell growth in a cell viability assay.

[2] = tested on: OMC-1; assay type: functional, cell-based;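 also: growth inhibition of the OMC-1 cell line, measured by a cell viability assay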
Description: SANGER: Inhibition of human OMC-1 cell growth in a cell viability assay.

[3] = tested on: KNS-42; assay type: functional, cell-based;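 also: growth inhibition of KNS-42 cells, read out with a cell viability assay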
Description: SANGER: Inhibition of human KNS-42 cell growth in a cell viability assay.

[4] = tested on: DMS-79; assay type: functional, cell-based;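 also: growth inhibition measured with a cell viability assay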
Description: SANGER: Inhibition of human DMS-79 cell growth in a cell viability assay.

[5] = tested on: D283 Med; assay type: functional, cell-based
Description: SANGER: Inhibition of human D-283MED cell growth in a cell viability assay.

[6] = tested on: NCI-H510A; assay type: functional, cell-based;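 also: growth inhibition of NCI-H510A cells, read out with a cell viability assay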
Description: SANGER: Inhibition of human NCI-H510A cell growth in a cell viability assay.

[7] = tested on: KARPAS-45; assay type: functional, cell-based;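 also: inhibition of cell line growth, read out through a viability assay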
Description: SANGER: Inhibition of human KARPAS-45 cell growth in a cell viability assay.

[8] = tested on: TK-10; assay type: functional, cell-based;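 also: growth inhibition of TK-10 cells, read out in a cell viability assay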
Description: SANGER: Inhibition of human TK10 cell growth in a cell viability assay.

[9] = tested on: ONS-76; assay type: functional, cell-based;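 also: growth inhibition of human ONS-76 cells, read out with a cell viability assay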
Description: SANGER: Inhibition of human ONS-76 cell growth in a cell viability assay.

[10] = tested on: KURAMOCHI; assay type: functional, cell-based;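 also: growth inhibition of KURAMOCHI cells, read out with a cell viability assay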
Description: SANGER: Inhibition of human KURAMOCHI cell growth in a cell viability assay.

[11] = tested on: SK-N-DZ; assay type: functional, cell-based;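 also: growth inhibition of the cancer cell line, read out through a viability assay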
Description: SANGER: Inhibition of human SK-N-DZ cell growth in a cell viability assay.

[12] = tested on: MSTO-211H; assay type: functional, cell-based
Description: SANGER: Inhibition of human MSTO-211H cell growth in a cell viability assay.

[13] = tested on: SJSA-1; assay type: functional, cell-based;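 also: growth inhibition of human SJSA-1 cells, read out through a cell viability measurement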
Description: SANGER: Inhibition of human SJSA-1 cell growth in a cell viability assay.

[14] = tested on: SK-N-FI; assay type: functional, cell-based;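 also: cell viability assay measuring growth inhibition of human SK-N-FI cells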
Description: SANGER: Inhibition of human SK-N-FI cell growth in a cell viability assay.

[15] = tested on: DU-4475; assay type: functional, cell-based
Description: SANGER: Inhibition of human DU-4475 cell growth in a cell viability assay.

[16] = tested on: HCE-T; assay type: functional, cell-based;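 also: cell viability assay read-out, reporting inhibition of HCE-T cell growth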
Description: SANGER: Inhibition of human HCE-T cell growth in a cell viability assay.

[17] = tested on: NOMO-1; assay type: functional, cell-based;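 also: growth inhibition of human NOMO-1 cells measured by a cell viability assay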
Description: SANGER: Inhibition of human NOMO-1 cell growth in a cell viability assay.

[18] = tested on: SK-MEL-1; assay type: functional, cell-based;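 also: growth inhibition of human SK-MEL-1 cells, read out by a cell viability assay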
Description: SANGER: Inhibition of human SK-MEL-1 cell growth in a cell viability assay.

[19] = tested on: KGN; assay type: functional, cell-based;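 also: growth inhibition of KGN cells, read out with a cell viability assay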
Description: SANGER: Inhibition of human KGN cell growth in a cell viability assay.

[20] = tested on: L-428; assay type: functional, cell-based
Description: SANGER: Inhibition of human L-428 cell growth in a cell viability assay.

[21] = tested on: KALS-1; assay type: functional, cell-based;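 also: growth inhibition of KALS-1 cells, determined with a cell viability assay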
Description: SANGER: Inhibition of human KALS-1 cell growth in a cell viability assay.

[22] = tested on: GCIY; assay type: functional, cell-based;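 also: growth inhibition of the human GCIY cell line, read out by a cell viability assay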
Description: SANGER: Inhibition of human GCIY cell growth in a cell viability assay.

[23] = tested on: EOL1; assay type: functional, cell-based;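 also: growth inhibition of EoL-1 cells, read out by a cell viability assay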
Description: SANGER: Inhibition of human EoL-1-cell cell growth in a cell viability assay.

[24] = tested on: SNB-75; assay type: functional, cell-based;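 also: cell viability assay measuring growth inhibition of human SNB-75 cells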
Description: SANGER: Inhibition of human SNB75 cell growth in a cell viability assay.

[25] = tested on: HCC1187; assay type: functional, cell-based;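 also: growth inhibition of HCC1187 cells, read out with a cell viability assay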
Description: SANGER: Inhibition of human HCC1187 cell growth in a cell viability assay.

[26] = tested on: CTV-1; assay type: functional, cell-based;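 also: growth inhibition of the cell line, read out with a cell viability assay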
Description: SANGER: Inhibition of human CTV-1 cell growth in a cell viability assay.

[27] = tested on: MS-1; assay type: functional, cell-based;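 also: growth inhibition of MS-1 cells, read out by cell viability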
Description: SANGER: Inhibition of human MS-1 cell growth in a cell viability assay.

[28] = tested on: RPMI-8866; assay type: functional, cell-based
Description: SANGER: Inhibition of human RPMI-8866 cell growth in a cell viability assay.

[29] = tested on: CAS-1; assay type: functional, cell-based;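 also: growth inhibition of CAS-1 cells, measured with a cell viability assay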
Description: SANGER: Inhibition of human CAS-1 cell growth in a cell viability assay.

[30] = tested on: EW-24; assay type: functional, cell-based;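 also: human EW-24 cancer cell line, growth inhibition read out via a cell viability assay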
Description: SANGER: Inhibition of human EW-24 cell growth in a cell viability assay.

[31] = tested on: HuTu80; assay type: functional, cell-based, HUTU-80;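 also: growth inhibition of HuTu80 human cells, determined with a cell viability readout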
Description: SANGER: Inhibition of human HUTU-80 cell growth in a cell viability assay.

[32] = tested on: A3-KAW; assay type: functional, cell-based;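 also: growth inhibition of human A3-KAW cells, read out with a cell viability assay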
Description: SANGER: Inhibition of human A3-KAW cell growth in a cell viability assay.

[33] = tested on: MHH-PREB-1; assay type: functional, cell-based;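 also: cell viability assay measuring inhibition of proliferation of human MHH-PREB-1 cells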
Description: SANGER: Inhibition of human MHH-PREB-1 cell growth in a cell viability assay.

[34] = tested on: ML-2; assay type: functional, cell-based;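 also: growth inhibition of ML-2 cells, measured with a cell viability readout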
Description: SANGER: Inhibition of human ML-2 cell growth in a cell viability assay.

[35] = tested on: ES5; assay type: functional, cell-based;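 also: growth inhibition of human ES5 cells, read out by a cell viability assay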
Description: SANGER: Inhibition of human ES5 cell growth in a cell viability assay.

[36] = tested on: NCI-H1155; assay type: functional, cell-based;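 also: cell growth inhibition measured by a viability assay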
Description: SANGER: Inhibition of human NCI-H1155 cell growth in a cell viability assay.

[37] = tested on: KS-1; assay type: functional, cell-based;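 also: growth inhibition of KS-1 cells, read out with a cell viability assay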
Description: SANGER: Inhibition of human KS-1 cell growth in a cell viability assay.

[38] = tested on: NCI-H1355; assay type: functional, cell-based;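 also: growth inhibition of human NCI-H1355 cells, read out by a cell viability assay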
Description: SANGER: Inhibition of human NCI-H1355 cell growth in a cell viability assay.

[39] = tested on: KINGS-1; assay type: functional, cell-based;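 also: cell viability assay measuring suppression of KINGS-1 cell growth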
Description: SANGER: Inhibition of human KINGS-1 cell growth in a cell viability assay.

[40] = tested on: NTERA-2-cl-D1; assay type: functional, cell-based;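 also: inhibition of cell growth, measured with a cell viability assay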
Description: SANGER: Inhibition of human NTERA-S-cl-D1 cell growth in a cell viability assay.

[41] = tested on: OS-RC-2; assay type: functional, cell-based;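 also: growth inhibition of human OS-RC-2 cells, measured by a cell viability assay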
Description: SANGER: Inhibition of human OS-RC-2 cell growth in a cell viability assay.

[42] = tested on: SW 962; assay type: functional, cell-based;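 also: growth inhibition of human SW962 cells, read out by a cell viability assay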
Description: SANGER: Inhibition of human SW962 cell growth in a cell viability assay.

[43] = tested on: C8166; assay type: functional, cell-based;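 also: growth inhibition of human C8166 cells measured by a cell viability assay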
Description: SANGER: Inhibition of human C8166 cell growth in a cell viability assay.

[44] = tested on: A388; assay type: functional, cell-based;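 also: growth inhibition of human A388 cells, read out with a cell viability assay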
Description: SANGER: Inhibition of human A388 cell growth in a cell viability assay.

[45] = tested on: DMS-114; assay type: functional, cell-based
[46] = tested on: KP-N-YS; assay type: functional, cell-based;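 also: cell viability assay measuring inhibition of cell line growth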
Description: SANGER: Inhibition of human KP-N-YS cell growth in a cell viability assay.

[47] = tested on: EC-GI-10; assay type: functional, cell-based
Description: SANGER: Inhibition of human EC-GI-10 cell growth in a cell viability assay.

[48] = tested on: SK-NEP-1; assay type: functional, cell-based;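 also: growth inhibition of human SK-NEP-1 cells, read out by a cell viability assay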
Description: SANGER: Inhibition of human SK-NEP-1 cell growth in a cell viability assay.

[49] = tested on: Calu-6; assay type: functional, cell-based;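 also: growth of human Calu-6 cells, read out by a cell viability assay, IC50 marking inhibition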
Description: SANGER: Inhibition of human Calu-6 cell growth in a cell viability assay.

[50] = tested on: LS-1034; assay type: functional, cell-based
Description: SANGER: Inhibition of human LS-1034 cell growth in a cell viability assay.

[51] = tested on: KG-1; assay type: functional, cell-based;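 also: growth inhibition of KG-1 cells, read out by a cell viability assay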
Description: SANGER: Inhibition of human KG-1 cell growth in a cell viability assay.

[52] = tested on: SF-539; assay type: functional, cell-based;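 also: Read-out is a cell viability assay, with IC50 reflecting inhibition of cell growth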
Description: SANGER: Inhibition of human SF539 cell growth in a cell viability assay.

[53] = tested on: JVM-2; assay type: functional, cell-based;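 also: growth inhibition of JVM-2 cells determined by a cell viability assay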
Description: SANGER: Inhibition of human JVM-2 cell growth in a cell viability assay.

[54] = tested on: SCC-15; assay type: functional, cell-based;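 also: growth inhibition of SCC-15 cells, read out with a cell viability assay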
Description: SANGER: Inhibition of human SCC-15 cell growth in a cell viability assay.

[55] = tested on: NCI-H1648; assay type: functional, cell-based;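 also: cell viability assay measuring inhibition of NCI-H1648 cell growth, from the Sanger screening data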
Description: SANGER: Inhibition of human NCI-H1648 cell growth in a cell viability assay.

[56] = tested on: GOTO; assay type: functional, cell-based;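 also: growth inhibition of GOTO cells, read out by a cell viability assay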
Description: SANGER: Inhibition of human GOTO cell growth in a cell viability assay.

[57] = tested on: MN-60; assay type: functional, cell-based;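 also: growth inhibition of the MN-60 cell line, determined with a cell viability assay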
Description: SANGER: Inhibition of human MN-60 cell growth in a cell viability assay.

[58] = tested on: LB1047-RCC; assay type: functional, cell-based;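 also: inhibition of cell growth, determined with a cell viability assay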
Description: SANGER: Inhibition of human LB1047-RCC cell growth in a cell viability assay.

[59] = tested on: CTB-1; assay type: functional, cell-based
Description: SANGER: Inhibition of human CTB-1 cell growth in a cell viability assay.

[60] = tested on: JVM-3; assay type: functional, cell-based
Description: SANGER: Inhibition of human JVM-3 cell growth in a cell viability assay.

[61] = tested on: HOP-62; assay type: functional, cell-based
Description: SANGER: Inhibition of human HOP-62 cell growth in a cell viability assay.

[62] = tested on: ES3; assay type: functional, cell-based
Description: SANGER: Inhibition of human ES3 cell growth in a cell viability assay.

[63] = tested on: D-502MG; assay type: functional, cell-based
Description: SANGER: Inhibition of human D-502MG cell growth in a cell viability assay.

Cc1ccc(NC(=O)c2cccc(C(C)(C)C#N)c2)cc1Nc1ccc2ncn(C)c(=O)c2c1
IC50 [1]: > 4000 nM | IC50 [2]: > 4000 nM | IC50 [3]: > 4000 nM | IC50 [4]: > 4000 nM | IC50 [5]: > 4000 nM | IC50 [6]: > 4000 nM | IC50 [7]: > 4000 nM | IC50 [8]: > 4000 nM | IC50 [9]: 167 nM | IC50 [10]: > 4000 nM | IC50 [11]: > 4000 nM | IC50 [12]: 3950 nM | IC50 [13]: 1430 nM | IC50 [14]: > 4000 nM | IC50 [15]: 10.2 nM | IC50 [16]: > 4000 nM | IC50 [17]: 1210 nM | IC50 [18]: 384 nM | IC50 [19]: > 4000 nM | IC50 [20]: > 4000 nM | IC50 [21]: > 4000 nM | IC50 [22]: > 4000 nM | IC50 [23]: > 4000 nM | IC50 [24]: > 4000 nM | IC50 [25]: > 4000 nM | IC50 [26]: 1200 nM | IC50 [27]: > 4000 nM | IC50 [28]: > 4000 nM | IC50 [29]: > 4000 nM | IC50 [30]: 2710 nM | IC50 [31]: 983 nM | IC50 [32]: > 4000 nM | IC50 [33]: > 4000 nM | IC50 [34]: 369 nM | IC50 [35]: > 4000 nM | IC50 [36]: > 4000 nM | IC50 [37]: 393 nM | IC50 [38]: > 4000 nM | IC50 [39]: > 4000 nM | IC50 [40]: > 4000 nM | IC50 [41]: > 4000 nM | IC50 [42]: > 4000 nM | IC50 [43]: > 4000 nM | IC50 [44]: > 4000 nM | IC50 [45]: > 4000 nM | IC50 [46]: > 4000 nM | IC50 [47]: > 4000 nM | IC50 [48]: 472 nM | IC50 [49]: 51.5 nM | IC50 [50]: > 4000 nM | IC50 [51]: 3810 nM | IC50 [52]: > 4000 nM | IC50 [53]: > 4000 nM | IC50 [54]: > 4000 nM | IC50 [55]: 673 nM | IC50 [56]: > 4000 nM | IC50 [57]: > 4000 nM | IC50 [58]: > 4000 nM | IC50 [59]: > 4000 nM | IC50 [60]: > 4000 nM | IC50 [61]: > 4000 nM | IC50 [62]: > 4000 nM | IC50 [63]: 2260 nM

CCn1c(-c2nonc2N)nc2cnc(Oc3cccc(NC(=O)c4ccc(OCCN5CCOCC5)cc4)c3)cc21 [GSK-269962A]
IC50 [1]: > 2500 nM | IC50 [2]: > 2500 nM | IC50 [3]: > 2500 nM | IC50 [4]: > 2500 nM | IC50 [5]: > 2500 nM | IC50 [6]: > 2500 nM | IC50 [7]: > 2500 nM | IC50 [8]: > 2500 nM | IC50 [9]: > 2500 nM | IC50 [10]: > 2500 nM | IC50 [11]: > 2500 nM | IC50 [12]: > 2500 nM | IC50 [13]: 1050 nM | IC50 [14]: > 2500 nM | IC50 [15]: > 2500 nM | IC50 [16]: > 2500 nM | IC50 [17]: > 2500 nM | IC50 [18]: > 2500 nM | IC50 [19]: 567 nM | IC50 [20]: > 2500 nM | IC50 [21]: > 2500 nM | IC50 [22]: > 2500 nM | IC50 [23]: > 2500 nM | IC50 [24]: > 2500 nM | IC50 [25]: > 2500 nM | IC50 [26]: > 2500 nM | IC50 [27]: > 2500 nM | IC50 [28]: > 2500 nM | IC50 [29]: 847 nM | IC50 [30]: > 2500 nM | IC50 [31]: > 2500 nM | IC50 [32]: > 2500 nM | IC50 [33]: > 2500 nM | IC50 [34]: > 2500 nM | IC50 [35]: > 2500 nM | IC50 [36]: > 2500 nM | IC50 [37]: 4.6 nM | IC50 [38]: > 2500 nM | IC50 [39]: > 2500 nM | IC50 [40]: > 2500 nM | IC50 [41]: > 2500 nM | IC50 [42]: > 2500 nM | IC50 [43]: > 2500 nM | IC50 [44]: > 2500 nM | IC50 [45]: > 2500 nM | IC50 [46]: > 2500 nM | IC50 [47]: > 2500 nM | IC50 [48]: > 2500 nM | IC50 [49]: > 2500 nM | IC50 [50]: > 2500 nM | IC50 [51]: > 2500 nM | IC50 [52]: 1290 nM | IC50 [53]: > 2500 nM | IC50 [55]: > 2500 nM | IC50 [56]: > 2500 nM | IC50 [57]: > 2500 nM | IC50 [58]: > 2500 nM | IC50 [59]: > 2500 nM | IC50 [60]: > 2500 nM | IC50 [61]: > 2500 nM | IC50 [62]: > 2500 nM | IC50 [63]: > 2500 nM
